Key:
[1] = test system: Plasmodium falciparum K1 strain; test: Anti-Plasmodium activity assay (Malstat); format: cell-based; conditions: P. falciparum K1, 72 h
Description: (§1) The compound set was tested against the following parasites: intra-erythrocytic forms in human red blood cells of P. falciparum K1 strain (malaria), [16], [32], [33], [35], bloodstream forms of T. brucei Squib 427 strain (human African trypanosomiasis, HAT), [31], [32], [34], intracellular amastigotes of T. cruzi Tulahuen CL2, beta- galactosidase strain (Chagas' Disease), [32]–[35], intracellular amastigotes of L. infantum MHOM/MA(BE)/67 (leishmaniasis), [32]–[36], larval and/or adult worms of S. mansoni Puerto Rican strain (schistosomiasis), [31], [37], microfilariae of B. malayi (lymphatic filariasis), [30] and microfilariae of O. ochengi or O. lienalis (onchocerciasis), [30]. It should be noted that the human pathogen for onchocerciasis is Onchocerca volvulus, but due to lack of a suitable in vitro assay or animal models for this pathogen, O. ochengi and lienalis, which are both animal pathogens, are used in the primary and secondary assays, [30].

[2] = test system: Schistosoma mansoni adult worms; test: Anti-Schistosoma activity assay (adult worm motility); format: cell-based; conditions: S. mansoni adult worms; 12.5 µM (method: 10 µg/ml or 12.5 µM)
Description: as §1
A subset of 9478 of the 10,000 compound collection was tested against the Puerto Rican strain of S. mansoni. 6144 of these were tested in a primary larval assay followed by the ex-vivo adult secondary screen. The remainder was screened only in the adult assay. […] The 65 compounds were sorted by chemical attractiveness, potency against adult schistosomes in culture, selectivity against other parasites, and toxicity to mammalian cells in culture. Based on this analysis, 5 series encompassing 13 compounds were chosen for advancement through the African Network for Drug and Diagnostic Innovation (ANDI) and other PDPs. Representative structures [structures # 13, 27, 28] are shown (Table S1). These compounds are unburdened by obvious toxic moieties, have acceptable compliance with the Lipinski rules, are selectively active against schistosomes and are not overtly toxic to mammalian cells. It has unfortunately not been possible to titrate all of these hits in culture; of about 50% for which such data are available, none has an IC50<2 µg/ml (which is the initial potency criteria).

[3] = test system: Trypanosoma brucei brucei Squib-427 strain; test: Antitrypanosomal activity assay, T. brucei (resazurin); format: cell-based; conditions: T. brucei Squib 427 bloodstream forms, 72 h
Description: as §1

[4] = test system: Onchocerca (lienalis or ochengi) microfilariae; test: Anti-Onchocerca microfilariae motility assay; format: cell-based, Onchocerca lienalis or O. ochengi
Description: as §1
4240 compound s were screened against O. ochengi at the University of Buea in Cameroon, while a subset of […] compounds was successfully screened in UK by the Northwick Park Institute for Medical Research against O. lienalis, at a uniform molarity. […] After removing molecules that were toxic to mammalian cells (IC50<5 µg/ml), 292 molecules remained for further evaluation. […] From the latter sub-set, […] distinct chemical series and one singleton [structure # 35] were active against both microfilaria and adults. One series [structures # 2, 3] was deemed not interesting due to lack of selectivity against mammalian cells. The remaining series is being transferred to ANDI for further progression as part of a new collaboration.

[5] = test system: Brugia malayi microfilariae; test: Anti-Brugia malayi microfilariae motility assay; format: cell-based; conditions: B. malayi microfilariae; 12.5 µM
Description: as §1
As result of logistics issues attributed to lost shipments of some compounds, only 6160 molecules of the 10,000 compound set were tested, at a uniform molarity, against B. malayi, including 6063 against microfilariae and 756 against adult worms (these sets overlap). […] Greatest priority was given to compounds with activity against adult worms, as no macrofilaricide is available for use in control campaigns and the activity of ivermectin as a microfilaricidal agent is unlikely to be bettered in a new series. Of the test set, 53 compounds met the activity criterion for microfilariae (100% motility reduction) and an additional 58 inhibited adult worm motility ≥75% at 10 µM. These were titrated to determine an IC50 value to support prioritization. Following cytotoxicity triage [structures # 1, 4, 6], eight compounds met the activity criterion for adult worms (i.e., 100% inhibition of adult worm motility), four of which were also active against microfilariae [structures # 14, 29, 30, 32]. […] Of these, the most interesting was TDR76699 [structure # 29]; this compound has very good activity against adult worms (IC50 = 0.1 µg/ml) and is also active against microfilariae (IC50 = 0.7 µg/ml). None of the other compounds tested against adult parasites had IC50 values ≤0.5 µg/ml, a threshold which would reduce concerns about specificity. However, a few series [structures # 31, 33, 34], appear interesting for future medicinal chemistry projects.

[6] = test system: MRC-5 cell line (diploid human embryonic lung fibroblast); test: Cytotoxicity on MRC-5 cells; format: cell-based
Excerpt: [table] An important part of the screen is the evaluation of all compounds for cytotoxicity using the diploid human embryonic lung fibroblast MRC-5 cell line (Figure 2). Further evaluation of cytotoxicity also takes advantage of the assays for intracellular protozoan parasites, as in the case of L. infantum and T. cruzi, which include murine peritoneal macrophage host cells and MRC-5SV2 human lung fibroblast cells, respectively, in the culture system.

[7] = test system: Trypanosoma cruzi, Tulahuen CL2 strain; test: Antitrypanosomal activity assay, T. cruzi in MRC-5 cells; format: cell-based; conditions: T. cruzi Tulahuen CL2 in MRC-5 cells, 7 days
Description: as §1
171 of the 744 actives passed the initial criterion of IC50<1 µg/ml for T. cruzi Tulahuen CL2, beta galactosidase strain maintained on MRC-5SV2 cells in MEM medium (MRC-5 cell/parasite inoculum: 4.10^3 cells/well+4.10^4 parasites/well), supplemented with […] L-glutamine, 16.5 mM NaHCO3 and 5% heat inactivated fetal calf serum. […] Of these, 109 were eliminated [structures #1–6] for poor selectivity versus mammalian cells (SI<50) and an additional 11 due to undesirable chemical attributes. The remaining 51 compounds were sorted into 10 series (45 compounds) and 6 singletons [structures # 21, 22]. Two of these series with excellent potency against T. cruzi, limited activity against other protozoa and SI values >50 (not shown), have been transferred to DNDi for further evaluation.

Row | SMILES | MAL IC50 [1] [µg/mL] | SCH % Motility Reduction at 12.5µM [2] [%] | HAT IC50 [3] [µg/mL] | ONC/MF % Motility Reduction at 12.5µM [4] [%] | LF/MF % Motility Reduction at 12.5µM [5] [%] | CYT IC50 [6] [µg/mL] | CHA IC50 [7] [µg/mL]
1 | CCCn1/c(=N/C(=O)C2=COCCO2)sc2c(C)ccc(OC)c21 [TDR82272] | 3.18 | 0 | >10.45 | 20 | 0 | >10.45 | 0.89
2 | O=C(Cc1ccc(F)cc1)Nc1nc(-c2ccccn2)cs1 [TDR82963] | 2.97 | 0 | 0.31 | 23 | 0 | >9.4 | 0.33
3 | COc1ccc(SCC(=O)Nc2nc(-c3ccccn3)cs2)cc1 [TDR83845] | >10.72 | 0 | 0.35 | 86 | 0 | >10.72 | 0.36
4 | CSc1ccc2nc(N(Cc3cccnc3)C(=O)c3ccc(C(C)(C)C)cc3)sc2c1 [TDR84420] | 0.15 | 0 | >13.43 | 25 | 0 | 7.16 | 0.56
5 | CS(=O)(=O)c1ccc2nc(N(Cc3cccnc3)C(=O)c3ccc4ccccc4c3)sc2c1 [TDR84431] | >14.21 | 0 | >14.21 | 0 | 0 | >14.21 | 0.23
6 | CSc1cccc(C(=O)N(Cc2cccnc2)c2nc3ccc(S(C)(=O)=O)cc3s2)c1 [TDR84433] | 8.28 | 0 | >14.09 | 0 | 0 | >14.09 | 0.38
7 | O=C(Cc1csc(NC(=O)C2CCC(=O)N2)n1)NCc1ccccn1 (centres unmarked) [TDR84826] | >10.78 | 100 | >10.78 | 50 | 20 | >10.78 | >10.78
8 | CC(C)(C)n1ncc2c(=O)n(CCC(=O)NCc3ccccc3Cl)cnc21 [TDR84851] | >11.64 | 100 | >11.64 | 0 | 20 | >11.64 | >11.64
9 | O=S(=O)(c1cccnc1)N1CCN(c2ccc(-c3cccs3)nn2)CC1 [TDR85115] | >11.6 | 0 | >11.6 | 0 | 50 | >11.6 | >11.6
10 | Cc1ccc(C(=O)Nc2nnc(Cc3cccs3)o2)cc1C [TDR85275] | – | 25 | 0.38 | 0 | 50 | – | 3.01
